From patent US6492398B1, “Thiazoloindolinone compounds” (SmithKline Beechman Corporation, priority 1999, dated 2002)
In brackets after ≈: the same amount, converted by molar mass.

Legend:
[1] = Crystallization determinations, solubility comments (Table IV); format: physicochemical; conditions: for Solubility (Comments): evaporation at 25° C.
Procedure: Recrystallization procedures for the respective forms were carried out in each case with the compound being dissolved in the selected solvent and stored at ambient temperature (e.g., 25° C.) until the solvent evaporated. The solid residue was then analyzed by x-ray diffraction.
In the respective anti-solvent determinations, the compound was dissolved in a selected solvent at 25° C., and water or alcohol was added to precipitate a solid. The solid was analyzed by x-ray diffraction.
The compound 4-(((7-oxo-6,7-dihydro-8H-[1,3]thiazolo[5,4-e]indol-8-ylidene)-methyl)amino)-N-(4-pyridinylmethyl) benzenesulfonamide was subjected to crystallization determinations using various solvents and methods of crystallization as described in Table IV below.
In the case of solvent that are relatively non-volatile (DMSO, DMF), complete evaporation was difficult to achieve at […] The presence of solvent was evident as an amorphous hump in the PXRD pattern. Cooling at 5° C. was less successful than the other crystallization approaches as a consequence of the low solubility of 4-(((7 oxo-6,7-dihydro-8H [1,3]thiazolo[5,4-e]indol-8-ylidene)methyl)amino)-N-(4-pyridinylmethyl) benzenesulfonamide under such conditions.

[2] = Solubilities in solvent media (PEG 400, transcutol, methanol); format: physicochemical
Text: The solubilities (in milligrams per milliliter, mg/mL) of the Form A compound in polyethylene glycol 400, transcutol and methanol solvents are as follows:
The solubilities (in milligrams per milliliter, mg/mL) of Form B in polyethylene glycol 400, transcutol and methanol solvents are as follows: […]

Row | Solubility ([1]; organic solvent or mixture, solvent ethyl acetate, cooling at 5° C.) [mg/mL] | Solubility (Comments) ([1]; solvent pyridine) | Solubility ([2]; polyethylene glycol 400, organic solvent or mixture, solvent PEG 400 (polyethylene glycol 400), read-out: Solubility) [mg/mL] | Solubility ([2]; solvent methanol) [mg/mL] | Solubility ([2]; transcutol, organic solvent or mixture, solvent transcutol, read-out: Solubility) [mg/mL] | Solubility (Comments) ([1]; solvent ethyl acetate) | Solubility ([2]; solvent PEG 400 (polyethylene glycol 400)) [mg/mL] | Solubility ([2]; solvent transcutol) [mg/mL] | Structure (SMILES)
1 | < 0.06 | low | 4.76 (≈ 10.3 mM) | 0.30 (≈ 0.647 mM) | 3.15 (≈ 6.8 mM) |  |  |  | O=C1Nc2ccc3ncsc3c2C1=CNc1ccc(S(=O)(=O)NCc2ccncc2)cc1 [Form A, 4-{[(7-oxo-6,7-dihydro8H-[1,3]thiazolo[5,4-e]indol-8-ylidene)methyl]amino}-N-(4-pyridinylmethyl)-benzenesulfonamide]
2 |  |  |  | 0.08 (≈ 0.173 mM) |  | low | 4.5 (≈ 9.71 mM) | 2.77 (≈ 5.98 mM) | O=C1Nc2ccc3ncsc3c2C1=CNc1ccc(S(=O)(=O)NCc2ccncc2)cc1 [Form B, 4-{[(7-oxo-6,7-dihydro-8H-[1,3]thiazolo[5,4-e]indol-8-ylidene)methyl]amino}-N-(4-pyridinylmethyl)-benzenesulfonamide]
